Results published in ChEMBL document CHEMBL1152723, “Remarkable enhancement in the DNA-binding ability of C2-fluoro substituted pyrrolo[2,1-c][1,4]benzodiazepines and their anticancer potential” (2009).

Columns and labels:
EKVX = test: Growth inhibition of human EKVX cells after 48 hrs by sulforhodamine B protein assay; type: functional
HL-60(TB) = test: Growth inhibition of human HL-60(TB) cells after 48 hrs by sulforhodamine B protein assay; type: functional; details: HL-60, 48 h
IGROV-1 = test: Growth inhibition of human IGROV1 cells after 48 hrs by sulforhodamine B protein assay; type: functional; details: IGROV-1, 48 h
COLO 205 = test: Growth inhibition of human COLO205 cells after 48 hrs by sulforhodamine B protein assay; type: functional; details: COLO 205, 48 h
UACC-257 = test: Growth inhibition of human UACC257 cells after 48 hrs by sulforhodamine B protein assay; type: functional; details: UACC-257, 48 h
CCRF-CEM = test: Growth inhibition of human CCRF-CEM cells after 48 hrs by sulforhodamine B protein assay; type: functional
NCI-H522 = test: Growth inhibition of human NCI-H522 cells after 48 hrs by sulforhodamine B protein assay; type: functional; details: NCI-H522, 48 h
MOLT-4 = test: Growth inhibition of human MOLT4 cells after 48 hrs by sulforhodamine B protein assay; type: functional; details: MOLT-4, 48 h
A549 = test: Growth inhibition of human A549 cells after 48 hrs by sulforhodamine B protein assay; type: functional; details: A549, 48 h
NCI-H23 = test: Growth inhibition of human NCI-H23 cells after 48 hrs by sulforhodamine B protein assay; type: functional; details: NCI-H23, 48 h
[1] = Growth inhibition of human Hs 578T cells after 48 hrs by sulforhodamine B protein assay; type: functional
SK-MEL-28 = test: Growth inhibition of human SK-MEL-28 cells after 48 hrs by sulforhodamine B protein assay; type: functional; details: SK-MEL-28, 48 h
HCT-15 = test: Growth inhibition of human HCT15 cells after 48 hrs by sulforhodamine B protein assay; type: functional; details: HCT-15, 48 h
CAKI-1 = test: Growth inhibition of human Caki1 cells after 48 hrs by sulforhodamine B protein assay; type: functional; details: CAKI-1, 48 h
SR = test: Growth inhibition of human SR cells after 48 hrs by sulforhodamine B protein assay; type: functional
OVCAR-8 = test: Growth inhibition of human OVCAR8 cells after 48 hrs by sulforhodamine B protein assay; type: functional; details: OVCAR-8, 48 h
A498 = test: Growth inhibition of human A498 cells after 48 hrs by sulforhodamine B protein assay; type: functional; details: A498, 48 h
SNB-19 = test: Growth inhibition of human SNB19 cells after 48 hrs by sulforhodamine B protein assay; type: functional; details: SNB-19, 48 h
NCI-H460 = test: Growth inhibition of human NCI-H460 cells after 48 hrs by sulforhodamine B protein assay; type: functional; details: NCI-H460, 48 h
OVCAR-4 = test: Growth inhibition of human OVCAR4 cells after 48 hrs by sulforhodamine B protein assay; type: functional; details: OVCAR-4, 48 h
SK-MEL-2 = test: Growth inhibition of human SK-MEL-2 cells after 48 hrs by sulforhodamine B protein assay; type: functional; details: SK-MEL-2, 48 h
TK-10 = test: Growth inhibition of human TK10 cells after 48 hrs by sulforhodamine B protein assay; type: functional; details: TK-10, 48 h
LOX IMVI = test: Growth inhibition of human LOXIMVI cells after 48 hrs by sulforhodamine B protein assay; type: functional
NCI-H226 = test: Growth inhibition of human NCI-H226 cells after 48 hrs by sulforhodamine B protein assay; type: functional; details: NCI-H226, 48 h
BT-549 = test: Growth inhibition of human BT549 cells after 48 hrs by sulforhodamine B protein assay; type: functional; details: BT-549, 48 h
UACC-62 = test: Growth inhibition of human UACC62 cells after 48 hrs by sulforhodamine B protein assay; type: functional; details: UACC-62, 48 h
OVCAR-3 = test: Growth inhibition of human OVCAR-3 cells after 48 hrs by sulforhodamine B protein assay; type: functional; details: OVCAR-3, 48 h
MDA-MB-435 = test: Growth inhibition of human MDA-MB-435 cells after 48 hrs by sulforhodamine B protein assay; type: functional; details: MDA-MB-435, 48 h
HCT-116 = test: Growth inhibition of human HCT116 cells after 48 hrs by sulforhodamine B protein assay; type: functional; details: HCT-116, 48 h
HOP-62 = test: Growth inhibition of human HOP62 cells after 48 hrs by sulforhodamine B protein assay; type: functional; details: HOP-62, 48 h
HT-29 = test: Growth inhibition of human HT-29 cells after 48 hrs by sulforhodamine B protein assay; type: functional; details: HT-29, 48 h
SW-620 = test: Growth inhibition of human SW620 cells after 48 hrs by sulforhodamine B protein assay; type: functional; details: SW-620, 48 h
SN12C = test: Growth inhibition of human SN12C cells after 48 hrs by sulforhodamine B protein assay; type: functional
ACHN = test: Growth inhibition of human ACHN cells after 48 hrs by sulforhodamine B protein assay; type: functional
786-0 = test: Growth inhibition of human 786-0 cells after 48 hrs by sulforhodamine B protein assay; type: functional; details: 786-0, 48 h
DNA = test: Binding affinity to calf thymus DNA assessed as change in melting temperature at a compound to DNA molar ratio of 1:5 at pH 7 by thermal denaturation assay; type: nucleic-acid assay; details: Bos taurus
KM12 = test: Growth inhibition of human KM12 cells after 48 hrs by sulforhodamine B protein assay; type: functional; details: KM12, 48 h
Malme-3M = test: Growth inhibition of human MALME-3M cells after 48 hrs by sulforhodamine B protein assay; type: functional
T47D = test: Growth inhibition of human T47D cells after 48 hrs by sulforhodamine B protein assay; type: functional
SNB-75 = test: Growth inhibition of human SNB75 cells after 48 hrs by sulforhodamine B protein assay; type: functional; details: SNB-75, 48 h
MDA-MB-231 = test: Growth inhibition of human MDA-MB-231 cells after 48 hrs by sulforhodamine B protein assay; type: functional; details: MDA-MB-231, 48 h
PC-3 = test: Growth inhibition of human PC3 cells after 48 hrs by sulforhodamine B protein assay; type: functional; details: PC-3, 48 h
HCC 2998 = test: Growth inhibition of human HCC2998 cells after 48 hrs by sulforhodamine B protein assay; type: functional; details: HCC 2998, 48 h
SF-295 = test: Growth inhibition of human SF295 cells after 48 hrs by sulforhodamine B protein assay; type: functional; details: SF-295, 48 h
DU-145 = test: Growth inhibition of human DU145 cells after 48 hrs by sulforhodamine B protein assay; type: functional; details: DU-145, 48 h
[2] = target: T1, Type II restriction enzyme BamHI (Bacillus amyloliquefaciens) (UniProt P23940); test: Inhibition of Bacillus amyloliquefaciens BamH1-mediated pBR322 cleavage after 16 hrs by RED100-restriction endonuclease digestion assay
T1 sequence (whole entry): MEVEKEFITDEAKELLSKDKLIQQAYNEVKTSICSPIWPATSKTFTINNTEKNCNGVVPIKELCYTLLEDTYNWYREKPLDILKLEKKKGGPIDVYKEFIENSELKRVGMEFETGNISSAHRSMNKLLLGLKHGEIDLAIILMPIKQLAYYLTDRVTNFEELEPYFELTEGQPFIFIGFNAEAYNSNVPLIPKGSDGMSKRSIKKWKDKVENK

K562 = test: Growth inhibition of human K562 cells after 48 hrs by sulforhodamine B protein assay; type: functional; details: K562, 48 h
MCF7 = test: Growth inhibition of human MCF7 cells after 48 hrs by sulforhodamine B protein assay; type: functional; details: MCF7, 48 h
SF-539 = test: Growth inhibition of human SF539 cells after 48 hrs by sulforhodamine B protein assay; type: functional; details: SF-539, 48 h
OVCAR-5 = test: Growth inhibition of human OVCAR5 cells after 48 hrs by sulforhodamine B protein assay; type: functional; details: OVCAR-5, 48 h
UO-31 = test: Growth inhibition of human UO31 cells after 48 hrs by sulforhodamine B protein assay; type: functional; details: UO-31, 48 h
[3] = Growth inhibition of human […] cells after 48 hrs by sulforhodamine B protein assay; type: functional
U-251 = test: Growth inhibition of human U251 cells after 48 hrs by sulforhodamine B protein assay; type: functional; details: U-251, 48 h
NCI-H322M = test: Growth inhibition of human NCI-H322M cells after 48 hrs by sulforhodamine B protein assay; type: functional
SK-OV-3 = test: Growth inhibition of human SKOV3 cells after 48 hrs by sulforhodamine B protein assay; type: functional; details: SK-OV-3, 48 h

COc1cc2c(cc1OCCCOc1cc3c(cc1OC)C(=O)N1CC(F)(F)C[C@H]1C=N3)N=C[C@@H]1CC(F)(F)CN1C2=O
GI50 (EKVX): 1720 nM
GI50 (HL-60(TB)): 250 nM
GI50 (IGROV-1): 110 nM
GI50 (COLO 205): 580 nM
GI50 (UACC-257): 1330 nM
GI50 (CCRF-CEM): 410 nM
GI50 (NCI-H522): 140 nM
GI50 (MOLT-4): 80 nM
GI50 (A549): 1210 nM
GI50 (NCI-H23): 490 nM
GI50 [1]: 170 nM
GI50 (SK-MEL-28): 1130 nM
GI50 (HCT-15): 8620 nM
GI50 (CAKI-1): < 10 nM
GI50 (SR): < 60 nM
GI50 (OVCAR-8): 420 nM
GI50 (A498): 610 nM
GI50 (SNB-19): 350 nM
GI50 (NCI-H460): < 80 nM
GI50 (OVCAR-4): 1450 nM
GI50 (SK-MEL-2): 1620 nM
GI50 (TK-10): 3450 nM
GI50 (LOX IMVI): 200 nM
GI50 (NCI-H226): 620 nM
GI50 (BT-549): 410 nM
GI50 (UACC-62): 410 nM
GI50 (OVCAR-3): 940 nM
GI50 (MDA-MB-435): 570 nM
GI50 (HCT-116): 130 nM
GI50 (HOP-62): 100 nM
GI50 (HT-29): 270 nM
GI50 (SW-620): 310 nM
GI50 (SN12C): 170 nM
GI50 (ACHN): 650 nM
GI50 (786-0): < 10 nM
ΔTm (DNA): 13.1 °C
GI50 (KM12): 2070 nM
GI50 (Malme-3M): 1030 nM
GI50 (T47D): 240 nM
GI50 (SNB-75): 80 nM
GI50 (MDA-MB-231): 800 nM
GI50 (PC-3): < 80 nM
GI50 (HCC 2998): 1030 nM
GI50 (SF-295): < 30 nM
GI50 (DU-145): 370 nM
Activity [2]: Dose-dependent effect
GI50 (K562): 530 nM
GI50 (MCF7): 130 nM
GI50 (SF-539): 150 nM
GI50 (OVCAR-5): 750 nM
GI50 (UO-31): 1050 nM
GI50 [3]: 1670 nM
GI50 (U-251): 110 nM
GI50 (NCI-H322M): 2190 nM
GI50 (SK-OV-3): 600 nM
